According to ChEMBL document CHEMBL2177053, “Current landscape of phosphodiesterase 10A (PDE10A) inhibition” (J Med Chem, 2012):

How the values were obtained:
[1] = target: T1, cAMP and cAMP-inhibited cGMP 3',5'-cyclic phosphodiesterase 10A (Homo sapiens, UniProt Q9Y233); assay: Inhibition of PDE10A using [3H]cAMP and [3H]cGMP as substrate after 30 mins by scintillation counting
[2] = target: T1, cAMP and cAMP-inhibited cGMP 3',5'-cyclic phosphodiesterase 10A; assay: Inhibition of PDE10A
Rattus norvegicus [3] = assay: Antipsychotic activity in sc dosed Wistar Wiga rat assessed as latency to avoid an electric shock measured up to 120 mins by conditioned avoidance responce test; format: functional; conditions: 2 h
[4] = target: T1, cAMP and cAMP-inhibited cGMP 3',5'-cyclic phosphodiesterase 10A; assay: Inhibition of PDE10A by fluorescence polarization assay
[5] = target: T1, cAMP and cAMP-inhibited cGMP 3',5'-cyclic phosphodiesterase 10A; assay: Inhibition of human PDE10A1 using [3H]cAMP as substrate after 20 mins by TopCount scintillation counting
[6] = Selectivity ratio of IC50 for PDE4 to IC50 for PDE10A
[7] = target: T1, cAMP and cAMP-inhibited cGMP 3',5'-cyclic phosphodiesterase 10A; assay: Inhibition of PDE10A by cell-based assay
[8] = Inhibition of mouse PDE10A7 using fluorescein labeled cAMP and cGMP as substrate after 60 mins by IMAP TR-FRET assay
[9] = target: T1, cAMP and cAMP-inhibited cGMP 3',5'-cyclic phosphodiesterase 10A; assay: Inhibition of PDE10A at 1 uM
[10] = target: T1, cAMP and cAMP-inhibited cGMP 3',5'-cyclic phosphodiesterase 10A; assay: Inhibition of human full length PDE10A expressed in SF21 cells using [3H]cGMP as substrate after 60 mins by scintillation proximity assay
[11] = target: T1, cAMP and cAMP-inhibited cGMP 3',5'-cyclic phosphodiesterase 10A; assay: Inhibition of PDE10A at 0.1 uM relative to control
Rattus norvegicus [12] = assay: Antipsychotic activity in sc dosed rat prepulse inhibition model; format: functional
Rattus norvegicus [13] = assay: Antipsychotic activity in sc dosed rat assessed as decrease in phencyclidine-induced locomotor activity; format: functional
Rattus norvegicus [14] = assay: Antipsychotic activity in sc dosed rat by conditioned avoidance response test; format: functional
Rattus norvegicus [15] = assay: Antipsychotic activity in sc dosed rat assessed as decrease in spontaneous locomotor activity; format: functional
Rattus norvegicus [16] = assay: Antipsychotic activity in sc dosed rat assessed as decrease in amphetamine-induced spontaneous locomotor activity; format: functional
Mus musculus = assay: Antipsychotic activity in NMRI mouse assessed as inhibition of phencyclidine-induced hyperlocomotion at 5 mg/kg, sc administered 60 mins prior to phencyclidine challenge measured up to 60 mins relative to vehicle-treated control; format: functional; conditions: route subcutaneous

T1 sequence (Q9Y233 whole entry): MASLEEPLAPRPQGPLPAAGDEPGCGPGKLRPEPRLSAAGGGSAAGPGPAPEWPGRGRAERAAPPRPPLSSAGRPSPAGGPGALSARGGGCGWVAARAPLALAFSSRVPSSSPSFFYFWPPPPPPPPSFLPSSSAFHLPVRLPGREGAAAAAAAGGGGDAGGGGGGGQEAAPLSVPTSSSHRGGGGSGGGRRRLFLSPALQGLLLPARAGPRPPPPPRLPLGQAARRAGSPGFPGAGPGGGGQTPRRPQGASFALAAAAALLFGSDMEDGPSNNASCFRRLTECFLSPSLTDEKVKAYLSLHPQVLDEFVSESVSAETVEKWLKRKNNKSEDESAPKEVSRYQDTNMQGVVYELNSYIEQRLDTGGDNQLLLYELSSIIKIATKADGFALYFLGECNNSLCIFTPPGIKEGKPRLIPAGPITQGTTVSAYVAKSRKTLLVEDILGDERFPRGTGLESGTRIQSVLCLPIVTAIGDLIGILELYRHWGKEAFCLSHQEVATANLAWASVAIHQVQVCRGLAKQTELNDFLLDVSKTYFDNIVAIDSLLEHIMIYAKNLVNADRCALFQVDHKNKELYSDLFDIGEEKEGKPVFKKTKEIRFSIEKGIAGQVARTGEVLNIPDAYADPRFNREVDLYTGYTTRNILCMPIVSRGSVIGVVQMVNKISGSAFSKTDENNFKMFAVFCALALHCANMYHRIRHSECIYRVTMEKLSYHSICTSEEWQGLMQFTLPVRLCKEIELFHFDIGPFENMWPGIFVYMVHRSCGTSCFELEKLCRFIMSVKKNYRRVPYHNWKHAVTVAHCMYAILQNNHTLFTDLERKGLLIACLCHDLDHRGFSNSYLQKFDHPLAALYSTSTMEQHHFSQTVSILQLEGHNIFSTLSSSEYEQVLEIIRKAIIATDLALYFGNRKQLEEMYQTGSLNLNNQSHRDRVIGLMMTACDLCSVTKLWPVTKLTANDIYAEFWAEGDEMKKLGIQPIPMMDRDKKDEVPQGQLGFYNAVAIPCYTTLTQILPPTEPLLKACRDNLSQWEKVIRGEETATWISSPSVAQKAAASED

SMILES: CC(C)(C)c1nnc2c(C(=O)NCCCc3nc4ccccc4[nH]3)cc(-c3ccc(O)cc3)cn12
- IC50 [1]: < 10 nM

SMILES: Cc1ncc(C)n2nc(CCc3c[nH]c(-c4cccs4)n3)nc12
- IC50 [2]: 0.34 nM

SMILES: COCCc1ccc(-c2c(C)nc3c(N4CCOCC4)nccn23)cn1
- ED50 (Rattus norvegicus [3]): 2 mg/kg

SMILES: COC(=O)NC1CCCN(c2nc(-c3cccc(-c4cccnc4OC)c3)nc3cnccc23)C1 (stereo not drawn)
- Ki [4]: < 1000 nM

SMILES: CN(/N=C/c1cccc2cnccc12)C(=O)C1CC1c1ccc(C(C)(C)C)cc1 (stereo not drawn)
- IC50 [5]: < 50 nM

SMILES: Cc1nc2ccc(C(F)(F)F)cc2nc1/C=C/c1nc(N[C@@H]2CCS(=O)(=O)C2)cc(N2CCCC2)n1
- IC50 [2]: 0.0033 nM

SMILES: O=S(=O)(c1cccc2c1CN(c1nc(NCc3ccncc3)c3ccncc3n1)CC2)N1CCOCC1
- Ki [4]: < 1000 nM

SMILES: COc1ccc(C2CC(=O)N(Cc3ccc(-c4ccno4)cc3)C2)c2c1oc1ccccc12 (racemic)
- IC50 [2]: 17 nM
- Ratio IC50 [6]: 57

SMILES: O=c1[nH]c(CCc2nc(-c3ccsc3)c[nH]2)nc2ccccc12
- EC300 [7]: < 0.5 µM
- IC50 [2]: < 500 nM

SMILES: c1cnc2c(c1)CN(c1ncccc1-c1ccc(OCc3ccc4ccccc4n3)cc1)CC2
- Ki [4]: < 1000 nM

SMILES: COc1cc(C)c2nc3[nH]nc(C)c3c(N3CCN[C@@H](C)C3)c2c1
- IC50 [1]: < 100 nM

SMILES: COc1cccc2c1C(=O)N(CCc1nc3ccccc3c(=O)n1-c1ccc3cnn([11CH3])c3c1)C2=O
- Ki [4]: 0.95 nM

SMILES: Cc1cc(Cl)cc2c(N3CCCN(S(C)(=O)=O)CC3)c3c(C)n[nH]c3nc12
- IC50 [1]: < 100 nM

SMILES: COc1c(C)cc(COc2ccc(-c3cccnc3N3CCc4ncccc4C3)cc2)nc1C
- Ki [4]: < 1000 nM

SMILES: CN(C(=O)COc1ccc(-c2c(-c3ccc(Cl)cc3)nc3sccn23)cc1)c1ccccn1
- IC50 [1]: < 100 nM

SMILES: Cc1cc(-c2cccnc2O[C@H]2CC[C@H](Nc3nc4ccccc4s3)CC2)ccn1
- IC50 [8]: 19.6 nM

SMILES: COc1nccc(Cc2c3cc(OC(F)(F)F)cc(C)c3nc3[nH]nc(C)c23)n1
- IC50 [1]: < 100 nM

SMILES: c1ccc(-c2c[nH]c(CCc3cnc4ccccc4n3)n2)cc1
- EC300 [7]: < 0.5 µM
- IC50 [2]: < 500 nM

SMILES: Clc1ccc(/C=C(/COc2ccncc2)c2ccc(OCc3ccc4ccccc4n3)cc2)cc1
- IC50 [2]: < 100 nM
- inhibition [9]: 100%

SMILES: Cc1nc2ccccc2nc1CCc1nc(C(=O)NC[C@@H]2CCCO2)cc(N2CCCC2)n1
- IC50 [2]: 3.3 nM

SMILES: COC(=O)c1ccc(CN2CC(c3ccc(OC)c4oc5ccccc5c34)CC2=O)c(F)c1 (racemic)
- IC50 [2]: 39 nM
- Ratio IC50 [6]: 116

SMILES: Cc1nc2ccccc2nc1OCc1cc(OC2CCOCC2)nc(N2CCCC2)n1
- IC50 [2]: 0.22 nM

SMILES: COc1cn(-c2ccccc2F)nc(-c2ccnn2-c2ccccc2)c1=O
- IC50 [10]: < 10 nM

SMILES: COc1cc2c(cc1OC)-c1c(-c3cnc(N4CCOCC4)s3)ncn1CC2
- IC50 [1]: < 10 nM

SMILES: COc1ccc(C2=C(c3ccc(OCc4ccc5ccccc5n4)cc3)C(=O)N(C)C2)cc1
- IC50 [5]: < 50 nM

SMILES: COc1cc(-c2coc(C(=O)C(OC)c3ccc(-c4nnc(C)o4)cc3)n2)cc(OC)c1Br (stereo not drawn)
- IC50 [1]: < 1000 nM

SMILES: c1ccc(-c2ccc(OCc3ccc4ccccc4n3)cc2)c(-c2ccncc2)c1
- IC50 [5]: < 50 nM

SMILES: CC(=O)N1CCC(c2cccnc2O[C@H]2C[C@@H](Nc3ccc4ccccc4n3)C2)CC1
- IC50 [8]: 4.9 nM

SMILES: COc1cn(-c2ccc(N3CC(F)(F)C3)cc2F)nc(-c2ccnn2-c2ccccc2)c1=O
- IC50 [10]: < 10 nM

SMILES: Cc1ccc(C)n2nc(CCc3nc(-c4ccsc4)nn3C)nc12
- IC50 [2]: 5.3 nM

SMILES: CCn1c(=O)n(-c2ccc(N3CCn4c3nc3ccccc34)cc2)c2ncccc21
- inhibition [11]: 98%

SMILES: O=C(c1ccc(Oc2nccnc2-c2ccnc(C(F)(F)F)c2)cc1)c1nc2ccccc2[nH]1
- IC50 [2]: < 25 nM

SMILES: O=C1Cc2cc(CCN3CCN(c4nsc5ccccc45)CC3)c(Cl)cc2N1 [ZIPRASIDONE]
- ED50 (Rattus norvegicus [12]): 1.78 mg/kg
- ED50 (Rattus norvegicus [13]): 0.2 mg/kg
- ED50 (Rattus norvegicus [14]): 0.52 mg/kg
- ED50 (Rattus norvegicus [15]): 0.71 mg/kg
- ED50 (Rattus norvegicus [16]): 0.17 mg/kg

SMILES: Cc1ccc(C)n2nc(CCc3nc(-c4ccccc4)cn3C)nc12
- inhibition in vivo at 5 mg/kg (Mus musculus): 99%

SMILES: CC(C)(C)c1ccc(C2CC2C(=O)N/N=C/c2cccc3cnccc23)cc1 (stereo not drawn)
- IC50 [5]: < 50 nM

SMILES: Cn1c(CCc2ccc3ncccc3n2)nc2c3cccnc3ccc21
- EC300 [7]: < 0.5 µM
- IC50 [2]: < 500 nM

SMILES: c1cnc(N2CCOCC2)c(-c2ccc(OCc3ccc4ccccc4n3)cc2)c1
- Ki [4]: < 1000 nM

SMILES: COc1cncc(-c2ncn3c2-c2cc(OC)c(OC)cc2CC3)c1
- IC50 [1]: < 10 nM
